Test results from ChEMBL document CHEMBL1201862, “PubChem BioAssay data set” (2004).
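Compound exposure: 48 hours, 5 concentrations, 96-well plates. The concentration for 50% growth inhibition is given as GI50.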 Calls of active or inactive are those of the source. Rule as the data show it: active = GI50 up to about 1.1 µM and inactive = higher.

How the values were obtained:
Experiment in all cases: NCI anticancer screen, dose series, 48 h
[1] = tested on: ACHN
[2] = tested on: HCC 2998
[3] = tested on: HOP-92
[4] = tested on: HT-29
[5] = tested on: K562
[6] = tested on: KM12
[7] = tested on: NCI-H23
[8] = tested on: NCI-H460
[9] = tested on: OVCAR-4
[10] = tested on: SF-268
[11] = tested on: SK-MEL-5
[12] = tested on: SNB-19
[13] = tested on: U-251
[14] = tested on: UACC-257
[15] = tested on: UO-31
[16] = tested on: HL-60
[17] = tested on: IGROV-1
[18] = tested on: RPMI-8226
[19] = tested on: SK-MEL-2
[20] = tested on: SF-539

Row | Structure (SMILES) | GI50 [1] | GI50 [2] | GI50 [3] | GI50 [4] | GI50 [5] | GI50 [6] | GI50 [7] | GI50 [8] | GI50 [9] | GI50 [10] | GI50 [11] | GI50 [12] | GI50 [13] | GI50 [14] | GI50 [15] | GI50 [16] | GI50 [17] | GI50 [18] | GI50 [19] | GI50 [20]
1 | Cc1ccc(S(=O)(=O)NCCSS(=O)(=O)c2ccc(C)cc2)cc1 | 32.8 µM (inactive) | 62.5 µM (inactive) | > 100 µM (inactive) | 22.6 µM (inactive) | 30.7 µM (inactive) | 28.1 µM (inactive) | 57.4 µM (inactive) | 35.4 µM (inactive) | > 100 µM (inactive) | 22.1 µM (inactive) | 20.7 µM (inactive) | 72.9 µM (inactive) | 25.5 µM (inactive) | 64.1 µM (inactive) | 28 µM (inactive) | – | – | – | – | –
2 | O=C(CCCn1cnc([N+](=O)[O-])n1)NCCn1ccnc1[N+](=O)[O-] | > 100 µM (inactive) | – | 61.7 µM (inactive) | > 100 µM (inactive) | > 100 µM (inactive) | > 100 µM (inactive) | > 100 µM (inactive) | > 100 µM (inactive) | > 100 µM (inactive) | > 100 µM (inactive) | > 100 µM (inactive) | – | > 100 µM (inactive) | > 100 µM (inactive) | > 100 µM (inactive) | > 100 µM (inactive) | > 100 µM (inactive) | > 100 µM (inactive) | > 100 µM (inactive) | –
3 | Nc1nc2ccc3ccccc3c2[nH]1 | > 10 µM (inactive) | > 10 µM (inactive) | – | > 10 µM (inactive) | > 10 µM (inactive) | > 10 µM (inactive) | > 10 µM (inactive) | > 10 µM (inactive) | > 10 µM (inactive) | > 10 µM (inactive) | > 10 µM (inactive) | > 10 µM (inactive) | > 10 µM (inactive) | – | 5.66 µM (inactive) | > 10 µM (inactive) | > 10 µM (inactive) | > 10 µM (inactive) | > 10 µM (inactive) | > 10 µM (inactive)
4 | CN(C)CCOc1cc2c(c3ccccc13)-c1ccccc1C2O (centres undefined) | – | 14.4 µM (inactive) | 6.56 µM (inactive) | 13.5 µM (inactive) | 18.6 µM (inactive) | 14.8 µM (inactive) | 16.9 µM (inactive) | 7.21 µM (inactive) | 17.9 µM (inactive) | 14.5 µM (inactive) | 15.5 µM (inactive) | 8.28 µM (inactive) | 15.5 µM (inactive) | 15.5 µM (inactive) | 12.5 µM (inactive) | 11.6 µM (inactive) | 16.7 µM (inactive) | 12.6 µM (inactive) | 17.2 µM (inactive) | 14.3 µM (inactive)
5 | COc1cc([C@@H]2c3cc4c(cc3[C@H](O)[C@H]3COC(=O)[C@H]23)OCO4)cc(OC)c1OC [PODOFILOX] | < 0.005 µM (active) | – | 0.227 µM (active) | < 0.005 µM (active) | < 0.005 µM (active) | < 0.005 µM (active) | < 0.005 µM (active) | – | – | < 0.005 µM (active) | – | < 0.005 µM (active) | – | 29.9 µM (inactive) | – | < 0.005 µM (active) | – | < 0.005 µM (active) | – | < 0.005 µM (active)
6 | COC(=O)CN(C)P(=O)(N1CC1)N1CC1 | 71.4 µM (inactive) | > 100 µM (inactive) | – | > 100 µM (inactive) | > 100 µM (inactive) | > 100 µM (inactive) | 83.4 µM (inactive) | – | > 100 µM (inactive) | 89.7 µM (inactive) | > 100 µM (inactive) | > 100 µM (inactive) | > 100 µM (inactive) | > 100 µM (inactive) | > 100 µM (inactive) | 26.9 µM (inactive) | > 100 µM (inactive) | > 100 µM (inactive) | > 100 µM (inactive) | > 100 µM (inactive)
7 | CSC1SCC2C(=O)N(C)C(C(C)C)C(=O)OCC(NC(=O)c3cnc4ccccc4n3)C(=O)NC(C)C(=O)N(C)C1C(=O)N(C)C(C(C)C)C(=O)OCC(NC(=O)c1cnc3ccccc3n1)C(=O)NC(C)C(=O)N2C (centres undefined) | – | 0.0075 µM (active) | – | 0.0075 µM (active) | – | 0.0075 µM (active) | – | 0.0075 µM (active) | 0.0075 µM (active) | 0.0075 µM (active) | 0.0075 µM (active) | 0.0075 µM (active) | 0.0075 µM (active) | – | 0.0083 µM (active) | 0.0193 µM (active) | 0.0075 µM (active) | 0.0075 µM (active) | 0.0178 µM (active) | –
8 | CS(C)(=O)=Nn1c(=O)n2n(c1=O)C1c3ccccc3C2c2ccccc21 | > 100 µM (inactive) | – | > 100 µM (inactive) | > 100 µM (inactive) | > 100 µM (inactive) | – | > 100 µM (inactive) | > 100 µM (inactive) | – | – | 43.7 µM (inactive) | > 100 µM (inactive) | > 100 µM (inactive) | > 100 µM (inactive) | > 100 µM (inactive) | > 100 µM (inactive) | > 100 µM (inactive) | > 100 µM (inactive) | > 100 µM (inactive) | > 100 µM (inactive)
